Source: patent US20250205342A1, “IRAK DEGRADERS AND USES THEREOF” (Kymera Therapeutics, Inc., priority 2022, published 2025)

How the values were obtained:
IRAK4 [1] = target: T1, IRAK4 (Homo sapiens, UniProt Q9NWZ3); test: hPBMC IRAK4 degradation flow assay (monocytes); format: cell-based; set-up: endogenous in cells; host or cells: human PBMCs (monocytes, CD14 positive gate); conditions: CD14 positive monocytes, 20 h, read-out: hPBMC monocyte DC50 at 20 h
T1 sequence (Q9NWZ3 1-460): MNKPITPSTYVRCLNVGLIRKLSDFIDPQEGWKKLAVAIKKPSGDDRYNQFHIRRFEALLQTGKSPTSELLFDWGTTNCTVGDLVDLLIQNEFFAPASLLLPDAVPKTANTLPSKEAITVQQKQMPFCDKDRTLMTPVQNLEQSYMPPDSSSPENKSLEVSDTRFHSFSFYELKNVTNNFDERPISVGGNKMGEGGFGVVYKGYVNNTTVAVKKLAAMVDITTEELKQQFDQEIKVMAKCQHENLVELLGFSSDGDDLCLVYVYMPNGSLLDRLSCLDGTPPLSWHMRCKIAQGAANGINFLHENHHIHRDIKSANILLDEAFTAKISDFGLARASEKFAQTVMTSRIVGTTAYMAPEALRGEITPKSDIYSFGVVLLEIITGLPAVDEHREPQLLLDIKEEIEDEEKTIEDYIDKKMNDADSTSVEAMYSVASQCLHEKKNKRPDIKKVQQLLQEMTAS
Outline: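 Thawed human PBMCs treated 20 h (or 4 h) at 37° C. with 10-point 5-fold compound dilutions, 0.1% DMSO, then fixed, methanol-permeabilized and stained for IRAK4 and lineage markers by flow, with monocytes gated CD14+. IRAK4 MFI normalized to DMSO and 10 µM control; DC50 and max degradation from 4-parameter logistic fit.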

IRAK4 [2] = target: T1, IRAK4; test: IRAK4 degradation in OCI-LY10 (MSD, Meso Scale Discovery); format: cell-based; set-up: endogenous in cells; host or cells: OCI-LY10; conditions: OCI-LY10 cells, 24 h
Outline: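 OCI-LY10 cells (300,000/well) were treated with an 8-point 1:3 series (top 1 to 10 μM) for 4 to 24 h at 37 °C. IRAK4 in RIPA lysates was quantified by MSD sandwich immunoassay with two anti-IRAK4 antibodies. DC50 was fitted with a three-parameter logistic equation.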

SMILES	DC50 (IRAK4 [1])	DC50 (IRAK4 [2])
CCOC(=O)Cn1cc(NC(=O)c2cccc(-c3cncc(CCCCCCCCCNC[C@H]4CC[C@H](n5cc(NC(=O)c6cnn7ccc(N8C[C@H]9C[C@@H]8CO9)nc67)c(C(F)F)n5)CC4)c3)c2)ccc1=O [Compound I-89]	1 to 10 µM	1 to 10 µM
CCOC(=O)Cn1cc(NC(=O)c2cccc(-c3cncc(CCCNC[C@H]4CC[C@H](n5cc6cc(NC(=O)c7cccc(C(F)(F)F)n7)c(C(C)(C)O)cc6n5)CC4)c3)c2)ccc1=O [Compound I-90]	> 10 µM	> 10 µM
COC(=O)Cn1cc(NC(=O)c2cccc(-c3cncc4cc(CCCCCCCCCNC[C@H]5CC[C@H](n6cc7cc(NC(=O)c8cccc(C(F)(F)F)n8)c(C(C)(C)O)cc7n6)CC5)ccc34)c2)ccc1=O [Compound I-55]	> 10 µM	> 10 µM
CC(C)(O)c1cc2nn([C@H]3CC[C@H](CNCCCCCCc4cccc5c(-c6cccc(C(=O)Nc7ccc(=O)n(CC(=O)O)c7)c6)cncc45)CC3)cc2cc1NC(=O)c1cccc(C(F)(F)F)n1 [Compound I-51]	> 10 µM	> 10 µM
CCOC(=O)Cn1cc(NC(=O)[C@H]2CCCN(c3cncc(NCCOCCOCCNC[C@H]4CC[C@H](n5cc(NC(=O)c6cnn7ccc(N8C[C@H]9C[C@@H]8CO9)nc67)c(C(F)F)n5)CC4)c3)C2)ccc1=O [Compound I-15]	> 10 µM	> 10 µM
CC(C)(O)c1cc2nn([C@H]3CC[C@H](CNCCCc4cncc(-c5cccc(C(=O)Nc6ccc(=O)n(CC(=O)O)c6)c5)c4)CC3)cc2cc1NC(=O)c1cccc(C(F)(F)F)n1 [Compound I-86]	> 10 µM	> 10 µM
CC(C)(O)c1cc2nn([C@H]3CC[C@H](CNCCCCCCn4ccc5c(C(=O)Nc6ccc(=O)n(CC(=O)O)c6)cccc54)CC3)cc2cc1NC(=O)c1cccc(C(F)(F)F)n1 [Compound I-58]	> 10 µM	> 10 µM
CCOC(=O)Cn1cc(NC(=O)[C@H]2CCCN(c3cncc(OCCNC[C@H]4CC[C@H](n5cc6cc(NC(=O)c7cccc(C(F)(F)F)n7)c(OC)cc6n5)CC4)c3)C2)ccc1=O [Compound I-33]	1 to 10 µM	> 10 µM
O=C(O)Cn1cc(NC(=O)c2cccc3c2ccn3CCCCCCCCCNC[C@H]2CC[C@H](n3cc(NC(=O)c4cnn5ccc(N6C[C@H]7C[C@@H]6CO7)nc45)c(C(F)F)n3)CC2)ccc1=O [Compound I-70]	> 10 µM	> 10 µM
O=C(O)Cn1cc(NC(=O)[C@H]2CCCN(c3cncc(OCCCCNC[C@H]4CC[C@H](n5cc(NC(=O)c6cnn7ccc(N8C[C@H]9C[C@@H]8CO9)nc67)c(C(F)F)n5)CC4)c3)C2)ccc1=O [Compound I-46]	> 10 µM	> 10 µM
CCOC(=O)Cn1cc(NC(=O)c2cc(CCCNC[C@H]3CC[C@H](n4cc5cc(NC(=O)c6cccc(C(F)(F)F)n6)c(C(C)(C)O)cc5n4)CC3)cc(-c3cccnc3)c2)ccc1=O [Compound I-82]	> 10 µM	> 10 µM
COc1cc2nn([C@H]3CC[C@H](CNCCCCc4cncc(N5CCC[C@H](C(=O)Nc6ccc(=O)n(CC(=O)O)c6)C5)c4)CC3)cc2cc1NC(=O)c1cccc(C(F)(F)F)n1 [Compound I-25]	> 10 µM	> 10 µM
O=C(O)Cn1cc(NC(=O)c2cc(CCCCCCCCCNC[C@H]3CC[C@H](n4cc(NC(=O)c5cnn6ccc(N7C[C@H]8C[C@@H]7CO8)nc56)c(C(F)F)n4)CC3)cc(-c3cccnc3)c2)ccc1=O [Compound I-74]	> 10 µM	> 10 µM
CCOC(=O)Cn1cc(NC(=O)c2cccc3c2ccn3CCCCCCNC[C@H]2CC[C@H](n3cc(NC(=O)c4cnn5ccc(N6C[C@H]7C[C@@H]6CO7)nc45)c(C(F)F)n3)CC2)ccc1=O [Compound I-61]	1 to 10 µM	> 10 µM
COc1cc2nn([C@H]3CC[C@H](CNCCOc4cncc(N5CCC[C@H](C(=O)Nc6ccc(=O)n(CC(=O)O)c6)C5)c4)CC3)cc2cc1NC(=O)c1cccc(C(F)(F)F)n1 [Compound I-29]	> 10 µM	> 10 µM
CCOC(=O)Cn1cc(NC(=O)c2cc(CCCNC[C@H]3CC[C@H](n4cc(NC(=O)c5cnn6ccc(N7C[C@H]8C[C@@H]7CO8)nc56)c(C(F)F)n4)CC3)cc(-c3cccnc3)c2)ccc1=O [Compound I-83]	> 10 µM	> 10 µM
O=C(O)Cn1cc(NC(=O)[C@H]2CCCN(c3cncc(CCNC[C@H]4CC[C@H](n5cc(NC(=O)c6cnn7ccc(N8C[C@H]9C[C@@H]8CO9)nc67)c(C(F)F)n5)CC4)c3)C2)ccc1=O [Compound I-28]	> 10 µM	> 10 µM
O=C(O)Cn1cc(NC(=O)c2cccc(-c3cncc(CCCCCCNC[C@H]4CC[C@H](n5cc(NC(=O)c6cnn7ccc(N8C[C@H]9C[C@@H]8CO9)nc67)c(C(F)F)n5)CC4)c3)c2)ccc1=O [Compound I-92]	> 10 µM	> 10 µM
CCOC(=O)Cn1cc(NC(=O)c2cccc3c2ccn3CCCNC[C@H]2CC[C@H](n3cc(NC(=O)c4cnn5ccc(N6C[C@H]7C[C@@H]6CO7)nc45)c(C(F)F)n3)CC2)ccc1=O [Compound I-81]	> 10 µM	> 10 µM
O=C(O)Cn1cc(NC(=O)[C@H]2CCCN(c3cncc(C#CCOC4CCN(C[C@H]5CC[C@H](n6cc(NC(=O)c7cnn8ccc(N9C[C@H]%10C[C@@H]9CO%10)nc78)c(C(F)F)n6)CC5)CC4)c3)C2)ccc1=O [Compound I-11]	> 10 µM	> 10 µM
CCOC(=O)Cn1cc(NC(=O)c2ccc(-c3ccc(F)c(CCCCCCCCCNC[C@H]4CC[C@H](n5cc6cc(NC(=O)c7cccc(C(F)(F)F)n7)c(C(C)(C)O)cc6n5)CC4)c3)cc2OC)ccc1=O [Compound I-64]	> 10 µM	1 to 10 µM
COc1cc2nn([C@H]3CC[C@H](CNCCCCCCc4cncc(N5CCC[C@H](C(=O)Nc6ccc(=O)n(CC(=O)O)c6)C5)c4)CC3)cc2cc1NC(=O)c1cccc(C(F)(F)F)n1 [Compound I-24]	0.1 to 1 µM	> 10 µM
CCOC(=O)Cn1cc(NC(=O)[C@H]2CCCN(c3cncc(OCCNC[C@H]4CC[C@H](n5cc(NC(=O)c6cnn7ccc(N8C[C@H]9C[C@@H]8CO9)nc67)c(C(F)F)n5)CC4)c3)C2)ccc1=O [Compound I-48]	1 to 10 µM	> 10 µM
CC(C)(O)c1cc2nn([C@H]3CC[C@H](CNCCCCCCCCCc4cncc(-c5cccc(C(=O)Nc6ccc(=O)n(CC(=O)O)c6)c5)c4)CC3)cc2cc1NC(=O)c1cccc(C(F)(F)F)n1 [Compound I-84]	1 to 10 µM	> 10 µM
COc1cc2nn([C@H]3CC[C@H](CNCCOCCOCCOc4cncc(N5CCC[C@H](C(=O)Nc6ccc(=O)n(CC(=O)O)c6)C5)c4)CC3)cc2cc1NC(=O)c1cccc(C(F)(F)F)n1 [Compound I-40]	> 10 µM	> 10 µM
CCOC(=O)Cn1cc(NC(=O)[C@H]2CCCN(c3cncc(CCCCNC[C@H]4CC[C@H](n5cc6cc(NC(=O)c7cccc(C(F)(F)F)n7)c(OC)cc6n5)CC4)c3)C2)ccc1=O [Compound I-31]	> 10 µM	> 10 µM
